Assay results taken from patent publication US20250205200A1, “5-METHOXY-N,N-[…][…] THE TREATMENT OF […]” (GH RESEARCH IRELAND LIMITED, priority 2022, published 2025).

System: patients with postpartum depression (PPD)
Assay: Clinical trial of inhaled 5-MeO-DMT (individualized dosing regimen) in postpartum depression; one patient, 6 mg then 12 mg
Conditions: n=1; for BPRS Blunted affect improvement / BPRS Blunted affect score / BPRS Conceptual disorganization improvement / BPRS Conceptual disorganization score / BPRS Disorientation improvement / BPRS Disorientation score / BPRS Grandiosity improvement / BPRS Grandiosity score / BPRS Hallucinatory behaviour improvement / BPRS Hallucinatory behaviour score / BPRS Hostility improvement / BPRS Hostility score / BPRS Mannerisms and Posturing improvement / BPRS Mannerisms and Posturing score / BPRS Motor retardation improvement / BPRS Motor retardation score / BPRS Suspiciousness improvement / BPRS Suspiciousness score / BPRS Uncooperativeness improvement / BPRS Uncooperativeness score / BPRS Unusual Thought Content improvement / BPRS Unusual Thought Content score: baseline 1; for BPRS Excitement improvement / BPRS Excitement score: baseline 2; for BPRS Anxiety improvement / BPRS Anxiety score: baseline 7
Description: The single-arm, open-label clinical trial will involve 15 adult female patients with clinically diagnosed postpartum depression (PPD).
The second dose (12 mg) will only be administered if: • a. […] The 6 mg dose was safe and well-tolerated according to the investigator, • c. Any psychoactive effects (PsE) of the prior dose have subsided, and • d. Pre-dose vital parameters and forced expiratory volume in one second (FEV1) are in normal range, or if outside of the normal range, are not clinically significant according to the investigator. • 3. Similarly, a third dose (18 mg) will only be administered if: • a. […] The 12 mg dose was safe and well-tolerated according to the investigator, and • c. Any PsE of the prior dose have subsided, and • d. Pre-dose vital parameters and forced expiratory volume in one second (FEV1) are in normal range, or if outside of the normal range, are not clinically significant according to the investigator.
The patients will be assessed for a peak psychedelic experience (based on a patient-scored visual analogue scale, the PE scale), sedation, and other endpoints after dosing.
Follow-up visits are planned for Day 1, and Day 7 after the dosing day.
The following criteria must be met by all patients considered for clinical trial participation: • 1. Is female and in the age range between 18 and 45 years (inclusive) at screening. • 2. Has a body mass index (BMI) in the range of 18.5 and 35 kg/m^2 (inclusive) at screening. • 3. Meets the trial criteria for PPD as assessed by a trial psychiatrist or registered psychologist: • a. Diagnosis of Major Depressive Disorder without psychotic features, confirmed by the Mini-International Neuropsychiatric Interview (MINI), with peri-partum onset that began no earlier than gestation and no later than the first 4 weeks postpartum. • b. Has a Montgomery-Åsberg Depression Rating Scale (MADRS) total score of equal to or greater than 28 at screening and pre-dose on Day 0. • 6. […] Patients must have a negative pregnancy test at screening and on the pre-test day (Day −1). • 5. Is willing to delay start of other antidepressant or anxiety medication until after the end of the trial at Day 7 and agrees to keep any psychotherapy unchanged during the trial.
A potential patient who meets any of the following key exclusion criteria will be excluded from participation in this trial: • 1. Has, based on history, psychiatric assessment, and evaluation of the MINI, a current or prior diagnosis of bipolar disorder, a manic or hypomanic episode, a psychotic disorder, Major Depressive Disorder (MDD) or other mood disorder with psychotic features, obsessive compulsive disorder, post-traumatic stress disorder (PTSD), autism spectrum disorder, borderline personality disorder, schizophrenia, delusional disorder, paranoid personality disorder, schizoaffective disorder, clinically significant intellectual disability, or any other psychiatric comorbidity that renders the patient unsuitable for the trial according to the investigator's judgment. • 2. Has one or more first or second degree relatives with a current or previously diagnosed bipolar disorder, psychotic disorder or other mood disorder (including MDD) with psychotic features. • 3. Is in the judgement of a trial psychiatrist or registered psychologist, at significant risk for suicide based on history, psychiatric assessment, and evaluation of suicidal ideation and suicidal behaviour based on the Columbia-Suicide Severity Rating Scale (C-SSRS). • 4. Has taken anti-depressive medication within 14 days or 5 half-lives (whichever is longer) prior to dosing (exception: within the last 5 weeks in the case of fluoxetine). • 5.

COc1ccc2[nH]cc(CCN(C)C)c2c1 [5-MeO-DMT]
MADRS Suicidal Thoughts improvement (Day 7, baseline 0): 0
MADRS Suicidal Thoughts score (Day 7, baseline 0): 0
BPRS Blunted affect improvement (Day 7): 0
BPRS Blunted affect score (Day 7): 1
BPRS Conceptual disorganization improvement (Day 7): 0
BPRS Conceptual disorganization score (Day 7): 1
BPRS Disorientation improvement (Day 7): 0
BPRS Disorientation score (Day 7): 1
BPRS Grandiosity improvement (Day 7): 0
BPRS Grandiosity score (Day 7): 1
BPRS Hallucinatory behaviour improvement (Day 7): 0
BPRS Hallucinatory behaviour score (Day 7): 1
BPRS Hostility improvement (Day 7): 0
BPRS Hostility score (Day 7): 1
BPRS Mannerisms and Posturing improvement (Day 7): 0
BPRS Mannerisms and Posturing score (Day 7): 1
BPRS Motor retardation improvement (Day 7): 0
BPRS Motor retardation score (Day 7): 1
BPRS Suspiciousness improvement (Day 7): 0
BPRS Suspiciousness score (Day 7): 1
BPRS Uncooperativeness improvement (Day 7): 0
BPRS Uncooperativeness score (Day 7): 1
BPRS Unusual Thought Content improvement (Day 7): 0
BPRS Unusual Thought Content score (Day 7): 1
BPRS Excitement improvement (Day 7): 1
BPRS Excitement score (Day 7): 1
MADRS Inability to Feel improvement (Day 7, baseline 3): 3
MADRS Inability to Feel score (Day 7, baseline 3): 0
MADRS Lassitude improvement (Day 7, baseline 3): 3
MADRS Lassitude score (Day 7, baseline 3): 0
MADRS Pessimistic Thoughts improvement (Day 7, baseline 4): 4
MADRS Pessimistic Thoughts score (Day 7, baseline 4): 0
MADRS Reported sadness improvement (Day 7, baseline 4): 4
MADRS Reported sadness score (Day 7, baseline 4): 0
BPRS Emotional withdrawal improvement (Day 7, baseline 5): 4
BPRS Emotional withdrawal score (Day 7, baseline 5): 1
MADRS Apparent sadness improvement (Day 7, baseline 5): 5
MADRS Apparent sadness score (Day 7, baseline 5): 0
MADRS Inner Tension improvement (Day 7, baseline 5): 4
MADRS Inner Tension score (Day 7, baseline 5): 1
MADRS Reduced Sleep improvement (Day 7, baseline 5): 5
MADRS Reduced Sleep score (Day 7, baseline 5): 0
BPRS Depressive Mood improvement (Day 7, baseline 6): 5
BPRS Depressive Mood score (Day 7, baseline 6): 1
BPRS Guilt feelings improvement (Day 7, baseline 6): 5
BPRS Guilt feelings score (Day 7, baseline 6): 1
BPRS Somatic Concern improvement (Day 7, baseline 6): 5
BPRS Somatic Concern score (Day 7, baseline 6): 1
BPRS Tension improvement (Day 7, baseline 6): 5
BPRS Tension score (Day 7, baseline 6): 1
BPRS Anxiety improvement (Day 7): 6
BPRS Anxiety score (Day 7): 1
BIMF functional domain Adjustment % improvement (Day 7 vs Day 0): 20.00%
BIMF functional domain Adjustment Δ (Day 7 vs Day 0): 1
BIMF functional domain Infant Care % improvement (Day 7 vs Day 0): 0.00%
BIMF functional domain Infant Care Δ (Day 7 vs Day 0): 0
BIMF functional domain Management % improvement (Day 7 vs Day 0): 18%
BIMF functional domain Management Δ (Day 7 vs Day 0): 5
BIMF functional domain Mother-Child Interaction Δ (Day 7 vs Day 0): 2
BIMF functional domain Psychological Well-being Δ (Day 7 vs Day 0): 9
BIMF functional domain Self-Care % improvement (Day 7 vs Day 0): 44%
BIMF functional domain Self-Care Δ (Day 7 vs Day 0): 4
BIMF functional domain Social Support Δ (Day 7 vs Day 0): 1
BIMF item 10 (I trust my own feelings (instincts) when taking care of my baby) Δ (Day 7 vs Day 0): 1
BIMF item 11 (I take a little time each week to do something for myself) Δ (Day 7 vs Day 0): 1
BIMF item 16 (I worry about how other people judge me (as a mother)) Δ (Day 7 vs Day 0): 2
BIMF total score percentage improvement (Day 7 vs Day 0 (92 to 105)): 14%
BPRS Blunted affect improvement (Discharge): 0
BPRS Blunted affect score (Discharge): 1
BPRS Conceptual disorganization improvement (Discharge): 0
BPRS Conceptual disorganization score (Discharge): 1
BPRS Disorientation improvement (Discharge): 0
BPRS Disorientation score (Discharge): 1
BPRS Grandiosity improvement (Discharge): 0
BPRS Grandiosity score (Discharge): 1
BPRS Hallucinatory behaviour improvement (Discharge): 0
BPRS Hallucinatory behaviour score (Discharge): 1
BPRS Hostility improvement (Discharge): 0
BPRS Hostility score (Discharge): 1
BPRS Mannerisms and Posturing improvement (Discharge): 0
BPRS Mannerisms and Posturing score (Discharge): 1
BPRS Motor retardation improvement (Discharge): 0
BPRS Motor retardation score (Discharge): 1
BPRS Suspiciousness improvement (Discharge): 0
BPRS Suspiciousness score (Discharge): 1
BPRS Uncooperativeness improvement (Discharge): 0
BPRS Uncooperativeness score (Discharge): 1
BPRS Unusual Thought Content improvement (Discharge): 0
BPRS Unusual Thought Content score (Discharge): 1
BPRS Excitement improvement (Discharge): 1
BPRS Excitement score (Discharge): 1
BPRS Emotional withdrawal improvement (Discharge, baseline 5): 4
BPRS Emotional withdrawal score (Discharge, baseline 5): 1
BPRS Depressive Mood improvement (Discharge, baseline 6): 5
BPRS Depressive Mood score (Discharge, baseline 6): 1
BPRS Guilt feelings improvement (Discharge, baseline 6): 5
BPRS Guilt feelings score (Discharge, baseline 6): 1
BPRS Somatic Concern improvement (Discharge, baseline 6): 5
BPRS Somatic Concern score (Discharge, baseline 6): 1
BPRS Tension score (Discharge, baseline 6): 1
BPRS Anxiety improvement (Discharge): 6
BPRS Anxiety score (Discharge): 1
Changes in vital parameters (shortly after administration): temporary, clinically non-relevant increase in heart rate and blood pressure
